Laboratory results taken from ChEMBL document CHEMBL1138734, “Modulation of binding strength in several classes of active site inhibitors of acetylcholinesterase studied by comparative binding energy analysis” (J Med Chem, 2004).

What follows are compounds tested against T1, Acetylcholinesterase (Homo sapiens, UniProt P22303) (assay: Inhibitory activity against of human erythrocyte acetylcholinesterase).
T1 sequence (P22303 whole entry): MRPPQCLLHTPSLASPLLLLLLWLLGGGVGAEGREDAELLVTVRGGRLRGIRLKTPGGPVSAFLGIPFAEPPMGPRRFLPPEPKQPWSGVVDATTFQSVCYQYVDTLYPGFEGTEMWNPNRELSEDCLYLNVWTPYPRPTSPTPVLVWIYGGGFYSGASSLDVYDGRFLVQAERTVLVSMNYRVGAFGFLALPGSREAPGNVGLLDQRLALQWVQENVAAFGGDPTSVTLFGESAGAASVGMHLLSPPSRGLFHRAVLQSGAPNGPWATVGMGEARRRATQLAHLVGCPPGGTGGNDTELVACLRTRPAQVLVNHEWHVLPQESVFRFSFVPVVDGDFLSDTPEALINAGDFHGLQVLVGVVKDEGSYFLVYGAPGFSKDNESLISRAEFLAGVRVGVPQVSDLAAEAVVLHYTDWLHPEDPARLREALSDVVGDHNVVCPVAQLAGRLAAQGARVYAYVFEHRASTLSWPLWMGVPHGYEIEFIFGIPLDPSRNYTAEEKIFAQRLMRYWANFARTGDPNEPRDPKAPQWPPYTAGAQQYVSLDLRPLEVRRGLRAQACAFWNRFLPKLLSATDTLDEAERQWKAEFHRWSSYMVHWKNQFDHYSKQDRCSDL
For `NC1=C2CCCCC2=NC2CCCCC12` (stereo not given), the IC50 was 363 nM.

What follows are compounds tested against T2, Acetylcholinesterase (Bos taurus, UniProt P23795).
T2 sequence (P23795 whole entry): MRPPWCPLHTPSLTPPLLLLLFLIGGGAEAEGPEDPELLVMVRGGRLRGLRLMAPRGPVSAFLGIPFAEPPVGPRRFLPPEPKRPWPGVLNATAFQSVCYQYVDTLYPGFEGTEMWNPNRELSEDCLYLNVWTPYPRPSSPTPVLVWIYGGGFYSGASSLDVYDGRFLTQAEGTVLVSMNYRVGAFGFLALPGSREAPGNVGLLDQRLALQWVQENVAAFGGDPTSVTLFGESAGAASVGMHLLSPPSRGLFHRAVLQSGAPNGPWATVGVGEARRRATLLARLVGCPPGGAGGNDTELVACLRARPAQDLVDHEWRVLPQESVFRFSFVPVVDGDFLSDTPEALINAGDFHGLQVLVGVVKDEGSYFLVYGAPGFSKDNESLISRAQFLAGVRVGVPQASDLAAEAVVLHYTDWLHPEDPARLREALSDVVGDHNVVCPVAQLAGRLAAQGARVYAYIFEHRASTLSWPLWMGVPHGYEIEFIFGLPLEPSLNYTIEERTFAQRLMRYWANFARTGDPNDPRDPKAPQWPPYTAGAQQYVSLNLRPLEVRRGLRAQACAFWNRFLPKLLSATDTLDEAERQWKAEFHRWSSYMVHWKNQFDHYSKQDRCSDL
Description: In vitro inhibitory activity against bovine acetylcholinesterase
For `CCC1=CC2Cc3nc4cc(Cl)ccc4c(N)c3C(C1)C2` (stereo not given), the IC50 was 1.29 nM.

These compounds were tested against T1, Acetylcholinesterase.
Description: Inhibitory activity against human erythrocyte acetylcholinesterase
With `Nc1c2c(nc3cnccc13)OCCC2` the IC50 was 41700 nM.
With `Nc1c2c(nc3cccc(F)c13)CCCC2` the IC50 was 79.4 nM.
`CCC1=CC2Cc3nc4cc(Cl)ccc4c(N)c3C(C1)C2` (stereo not given) showed an IC50 of 0.324 nM.
In the case of `C=C1c2c(Cl)cccc2N=C2CCCCCN12`, the IC50 is reported as 1700 nM.
With `O=c1c2ccc(Cl)cc2nc2n1CCCCC2` the IC50 was over 100000 nM.
With `C=C1c2ccc(Cl)cc2N=C2CCCCCN12` the IC50 was 158 nM.
`Nc1c2c(nc3ccc(Cl)cc13)OCCC2` gave an IC50 of 10000 nM.
For `S=c1c2ccc(Cl)cc2nc2n1CCCCC2`, the IC50 was over 100000 nM.
With `C=C1c2cccc(Cl)c2N=C2CCCCCN12` the IC50 was 1510 nM.
Compound `C=C1c2cc(Cl)ccc2N=C2CCCCCN12` has an IC50 of 501 nM.
`C=C1c2ccccc2N=C2CCCCCN12` showed an IC50 of 3720 nM.

Molecular target: T1, Acetylcholinesterase
Remark: another data set of the same source
Description: In vitro inhibitory activity against human erythrocyte acetylcholinesterase
Compound `Nc1c2c(nc3cccc(F)c13)C1CC(C2)C1` has an IC50 of 28.8 nM.
`Nc1c2c(nc3ccc(O)cc13)CCCC2` was tested, and the IC50 was 162 nM.
